# Patent publication US6593358B1, “Thienyl-pyrazoles and their use for controlling pests” (Nihon Bayer Agrochem K.K., priority 1999, dated 2003)
# What was measured:
# Meloidogyne incognita = assay: Test against Meloidogyne spp. (soil pot test); format: in vivo; details: soil contaminated with Meloidogyne incognita, final concentration 50 ppm; tomato (Kurihara) in pots, greenhouse 4 weeks; from root knot index
# Procedure: Test Against Meloidogyne spp. (Soil Pot Test)
# Preparation of Test Agent:
# 1 Part of the active compound is impregnated to 99 parts of pumice to obtain fine granules.
# The active compound prepared as mentioned above is added to soil contaminated with Meloidogyne incognita to a final concentration of 50 ppm and then homogeneously mixed by stirring. Then a pot (1/5000 are) was filled with the soil. About 20 seeds of tomato (variety: Kurihara) were sown per pot. After cultivation in a greenhouse for 4 weeks, they were carefully pulled out not to damage the root and the root knot index and the controlling effect of the compound tested were determined as follows:
# Degree of damage 0: No knot was formed (Complete control).
# 1: A few knots were formed.
# 2: Knots were formed to a medium extent.
# 3: Knots were formed to an intense extent.
# 4: Knots were formed to the most intense extent (which corresponds to non-treatment).
# Based on the degree of damage acording to the aforementioned standard (0-4), the root knot index can be determined as follows (Equation 1) [formula]
# The controlling effect which can be achieved by applying compounds according to the present invention can then be determined as follows (Equation 2): [formula]
# The evaluation of the controlling effect towards nematodes is then done by connecting the values of the controlling effect with the following standards (a-d): […]
melting point,SMILES,Evaluation of controlling effect (Meloidogyne incognita)
53 to 55 °C,CCCCCCc1cc(-c2cccs2)n[nH]1,
134 to 138 °C,ClCCOc1cc(-c2cccs2)n[nH]1,
133 to 135 °C,Cc1cc(-c2cccs2)n[nH]1,
144 to 146 °C,Oc1cc(-c2cccs2)n[nH]1,

SMILES,melting point,Evaluation of controlling effect (Meloidogyne incognita)
"CCCCc1cc(-c2cccs2)n[nH]1 [Compound 82, 3-(2-thienyl)-5-n-butylpyrazole]",47 to 48 °C,a (Controlling effect 100-71%)
"CCCCCc1cc(-c2cccs2)n[nH]1 [Compound 83, 3-(2-thienyl)-5-n-pentylpyrazole]",68 to 73 °C,a (Controlling effect 100-71%)
